We go through two compounds from patent US12622890B2, “Use of the active compound in the prevention or treatment of ovarian dysfunction diseases” (INSTITUTE OF BIOPHYSICS, CHINESE ACADEMY OF SCIENCES, priority 2022, dated 2026).

The subject of test [1] is POI mice. The test can be described thus: Serum FSH level in POI mice. As to conditions: for FSH: serum, after 12 days 100 mg/kg/d oral. In kind it is in vivo. From the text:
(§1) Biomarkers mentioned herein, such as follicle stimulating hormone (FSH), estrogen (e.g., E2), and superoxide dismutase (SOD), malondialdehyde (MDA), relative reactive oxygen species (ROS), and lactate dehydrogenase (LDH), etc., can be detected using methods commonly known in the field. Detection methods typically cover methods that quantify the level of a biomarker in a sample (quantitative methods). Which of the following methods are suitable for qualitative and/or quantitative detection of biomarkers is generally known to those skilled in the field. Samples can be conveniently measured, for example for proteins using immunoassays such as ELISA, RIA, etc., which are commercially available.
(§2) After 12 days of administration, half of the mice in each group were sacrificed, and their blood was collected and kept still. The serum was separated after centrifugation at 4500 rpm and stored in a refrigerator at −80° C. for future use to measure levels of follicle stimulating hormone, estrogen, and the indexes of oxidative stress such as superoxide dismutase (SOD) and malondial dehyde (MDA).
(§3) After 12 days of administration, half of the mice in each group were sacrificed, and their blood was collected and kept in still. The serum was separated after centrifugation at 4500 rpm and stored in a refrigerator at −80° C. for future use to measure levals of follicle stimulating hormone, estrogen, and the indexes of oxidative stress such as superoxide dismutase (SOD) and malondialdehyde (MDA).
• 1. Hormone levels in mice blood of Example 1 are measured in this embodiment.

Test [2] relates to POI mice. Put plainly: Serum relative reactive oxygen species (ROS) level. It is filed as in vivo.
Text: as §1
(§4) The oxidative stress hypothesis believes that the reduction of antioxidant components in the body leads to the weakening of the ability to remove free radicals, which leads to oxidative damage of biological macromolecules, and the imbalance of cellular oxidative and antioxidant functions, which leads to oxidative stress, and then leads to disease and aging. Oxygen free radicals act on unsaturated fatty acids of lipids to generate lipid peroxides, including malondialdehyde (MDA) and so on. The antioxidant defense system of scavenging free radicals includes superoxide dismutase (SOD) and so on. Recently, oxidative stress has been reported to be associated with ovarian aging and POI in primates. Therefore, this embodiment examined the effects of DMF, HDCA, and DMF+HDCA on oxidative stress in mice with premature ovarian failure, and the results are shown in Table 5, FIGS. 9 to 12.

Test [3] concerns POI mice. The test can be described thus: Serum superoxide dismutase (SOD) level, oxidative stress. In kind it is in vivo.
Text: as §1, §2, §3, §4

The next test relates to ovarian tissues. The test can be described thus: RNA transcription level sequencing of ovarian tissues, differentially expressed genes. As to conditions: ovarian tissue RNA sequencing, FC>2, Q<0.05. In kind it is in vivo, mice. The method, then:
Mice were sacrificed after various treatments, and ovarian tissues were taken, snap-frozen in liquid nitrogen, stored at −80° C., and sent to Annoroad for RNA transcription level sequencing. Bioinformatics analysis and mapping were performed on the sequencing results. […] The differential genes of the three treatment groups were intersectioned. […] These differential gene sets were then subjected to Gene Ontology function (GO) enrichment (FC>2, Q<0.05) (FIG. 16) and signaling pathway (KEGG) analysis mapping (FIG. 17), respectively.

Test [4] in a line: Body weight of POI model mice before modeling, after modeling and after treatment. It is filed as in vivo. To be noted: for Body weight before modeling: D 0, 100 mg/kg/d oral; for Body weight after modeling: D 7, 100 mg/kg/d oral; for Body weight after treatment: D 13, 100 mg/kg/d oral. On the procedure: Animal model establishment: A total of 34 C57 female mice (8-week-old) were selected and intraperitoneally injected with the ratio of 120 mg/kg cyclophosphamide (SIGMA) and 30 mg/kg Busulfan (Aladdin) once a day for 1 week at the dose of 0.1 mL/10 g to establish the model of POI.
Grouping: 34 POI model mice were randomly divided into four groups: sodium fumarate (SF) treatment group (n=9), hyodeoxycholic acid (HDCA) treatment group (n=8), sodium fumarate plus hyodeoxycholic acid (mass ratio 1:1) combination (SF+HDCA) treatment group (n=8) and normal saline (Vehicle) group (n=9). Mice in the SF group were given oral administration of SF at the ratio of 100 mg/kg/d body weight, mice in the HDCA group were given oral administration of HDCA at the ratio of 100 mg/kg/d body weight, and mice in the combination group were given oral administration of SF and HDCA at the ratio of 100 mg/kg/d body weight. SF and HDCA were dissolved with 0.9% normal saline when used. Mice in the vehicle group were given the same amount of normal saline orally. All the mice were treated consecutively for 12 days.
Body weight were recorded at three time points, before modeling (at the beginning of treatment), after modeling and after treatment.
Animal model establishment: A total of 24 C57 mice (8-week-old) were selected and intraperitoneally injected with the ratio of 120 mg/kg cyclophosphamide and 30 mg/kg Busulfan once a day for 1 week at the dose of 0.1 mL/10 g to establish the model of POI.
Grouping: 24 POI model mice were randomly divided into four groups: dimethyl fumarate (DMF) treatment group (n=5), hyodeoxycholic acid (HDCA) treatment group (n=6), dimethyl fumarate plus hyodeoxycholic acid (mass ratio=1:1) combination (DMF+HDCA) treatment group (n=7) and normal saline (Vehicle) group (n=6). Mice in the DMF treatment group were orally administrated at the ratio of 100 mg/kg/d body weight. Mice in the HDCA treatment group were given oral administration of HDCA at the ratio of 100 mg/kg/d body weight, and mice in the combination group were given oral administration of DMF and HDCA at the ratio of 100 mg/kg/d body weight. Once daily, DMF and HDCA were dissolved in 0.9% normal saline when used. Mice in normal saline group were given the same amount of normal saline orally every day. The drug was administered for 12 days.
Body weight were recorded at three time points, before modeling (at the beginning of treatment, the 0th day), after modeling (the 7th day) and after treatment (the 13th day).
The body weight of POI model mice of each group was measured before modeling, after modeling and after treatment.

Test [5] has as its system POI model mice. The test can be described thus: Estrous cycle observation by vaginal smear cytology in POI model mice. It is filed as in vivo.
The subject of test [6] is POI mice. Put plainly: Serum estradiol (E2) level in POI mice. It is filed as in vivo. To be noted: for E2: serum, after 12 days 100 mg/kg/d oral.
Text: as §1, §2, §3

The subject of test [7] is POI mice. The test can be described thus: Serum malondialdehyde (MDA) level, oxidative stress. It is filed as in vivo.
Text: as §1, §2, §3, §4

Test [8] deals with aged mice with ovarian dysfunction. The test can be described thus: Ovulation after controlled ovarian hyperstimulation in aged mice. In kind it is in vivo. As to conditions: fourteen months old mice. The method, then:
In this Embodiment, the effect of sodium fumarate and hyodeoxy cholic acid on ovulation in aged mice with ovarian dysfunction (ovarian function decline due to natural aging) was examined. Fourteen months old mice were divided into three groups: control group (n=6), sodium fumarate group (SF, n=4), sodium fumarate and hyodeoxy cholic acid group (SF+HDCA, n=3).
Methods: After controlled ovarian hyperstimulation (48 hours after pregnant horse serum injection, followed by chorionic gonadotropin injection), the ampulla of fallopian tubes of mice was collected 14-16 hours later, and the number of oocytes obtained was recorded. […] All 4 mice in the SF group ovulated.

Test [9] concerns POI model mice. The test can be described thus: Estrous cycle observation by vaginal smear cytology in POI model mice. It is filed as in vivo. On the procedure: Cytological observation of vaginal smear was performed daily.
The vagina of mice was exposed, and about 30 μl of normal saline was dripped into the vagina, gently aspirated onto the slide, and observed under the microscope. Staining was performed when necessary, fixed with 95% ethanol for 10 minutes, stained with hematoxylin in aqueous solution for 5-8 minutes, washed with running water for color separation, and then stained with eosin for 3 minutes. After drying. the slices were sealed with neutral gum.
The vagina of mice was exposed, and about 30 μl of normal saline was dripped into the vagina, gently aspirated onto the slide, and observed under the microscope. Staining was performed when necessary, stained with hematoxylin in aqueous solution for several minutes after drying, washed with running water for color separation, and then stained with alchhol eosin for several seconds. The slices were sealed with neutral gum.
During the estrous cycle, a series of histological and physiological changes occur in the reproductive and endocrine systems of mice. According to these changes, the estrous cycle can be divided into proestrous (P), estrous (E), metestrum (M) and diestrum (D). • 1. Observation of estrous cycle in mice of Example 1
After modeling and treatment, there were 6 mice left in the normal saline group, 6 mice left in the sodium fumarate treatment group, 7 mice left in the hyodeoxycholic acid group, and 7 mice left in the sodium fumarate and hyodeoxycholic acid combination group. […] The estrous cycle was divided into four periods (P: proestrous; E: estrous period; M: metestrum; D: diestrum) for vaginal smear cytological observation, the results are shown in FIG. 3.
The estrous cycle of mice was plotted according to the cytological results of vaginal smears observed for 12 consecutive days, and the results are shown in FIG. 4. The estrous cycle of mice is about 4 to 5 days, which is divided into four periods alternately. […] The estrous cycle of 4 mice was recovered in sodium fumarate treatment group. The estrous cycle of 3 mice was recovered in HDCA group. The estrous cycle of 6 mice was recovered in group treated with SF and HDCA.
The source holds these as a separate data set.

Test [10] relates to POI mice. The test can be described thus: Serum lactate dehydrogenase (LDH) level. In kind it is in vivo.
Text: as §1

Setting [11] is: Example 2, FIG. 8, not statistically significant.
Where [12] appears, read: serum, POI mice after treatment.
Setting [13] is: Example 2, during drug administration, FIG. 5B.
The mark [14] stands for this setting: Example 1, during drug administration, FIG. 4B.

Where a name gives a salt, the structure may show the parent alone.

Regarding `COC(=O)/C=C/C(=O)OC` [DMF, dimethyl fumarate], the “Serum FSH level compared with the normal saline group” value in the test on POI mice [1] (setting [11]) is listed as “certain decreasing trend”. For the same compound, the FSH in the test on POI mice [1] (Example 2 POI mice) was found to be 2.39 ± 1.07 mIU/mL. The “ROS levels compared with the normal saline group” value in the test with POI mice [2] (FIG. 11) was “significantly reduced”. In the test on POI mice [2] (relative ROS level in serum, POI mice after treatment), this compound came in with an ROS of 4.610 ± 0.476. Further, the “Activity of SOD compared with the normal saline group” value in the test on POI mice [3] (FIG. 9, difference not significant) is “increased”. This compound also yielded an SOD in the test on POI mice [3] (setting [12]) of 14.42 ± 9.05 U/mL. Also, in the test with ovarian tissues, the “Number of genes down-regulated compared with the control group” value worked out at 5261 genes and the “Number of genes up-regulated compared with the control group” value amounted to 1547 genes. In [4] (Example 2 POI mice), the “Body weight before modeling” value amounted to 19.22 ± 1.39 g, the “Body weight after modeling” value amounted to 16.54 ± 1.44 g and the “Body weight after treatment” value amounted to 16.98 ± 1.99 g. The “Effect on mice with premature ovarian failure (conclusion from estrous cycle)” value in the test on POI model mice [5] (Example 2) was “preventive and therapeutic effects”. For the same compound, in the test on POI model mice [5] (setting [13]), the “Average rate of diestrum (D) in estrous cycle” value turned out to be 55.00%, the “Average rate of estrous (E) stage in estrous cycle” value came to 15.00%, the “Average rate of metestrum (M) in estrous cycle” value is reported as 2.50% and the “Average rate of proestrous (P) in estrous cycle” value was 27.50%. The “Number of mice with estrous cycle recovered” value in the test with POI model mice [5] (Example 2, 12 days observation, DMF n=5, HDCA n=6, DMF and HDCA n=7) is 4 mice. In addition, the “Serum E2 level compared with the normal saline group” value with POI mice [6] (setting [11]) is listed as “certain tendency to decrease”. Also, the E2 in the test on POI mice [6] (Example 2 POI mice) was found to be 48.86 ± 11.41 pg/mL. The “MDA activity compared with the normal saline group” value in the test on POI mice [7] (FIG. 10, no significant difference) was “reduced to some extent”. Further, the MDA with POI mice [7] (setting [12]) is reported as 1.83 ± 3.06 nmol/mL.
In the case of `O=C([O-])/C=C/C(=O)[O-].[Na+].[Na+]` [SF, sodium fumarate], in [8], the “Restoration of ovulation in aged mice” value is recorded as “can restore ovulation”. Further, in [8] (SF n=4, SF+HDCA n=3, FIG. 13), the “Number of mice that ovulated” value is given as 4 mice. Further, the “Effect on mice with premature ovarian failure (conclusion from estrous cycle)” value with POI model mice [9] (Example 1) is “preventive and therapeutic effects”. In the test on POI model mice [9] (setting [14]), the “Average rate of diestrum (D) in estrous cycle” value amounted to 20.83%, the “Average rate of estrous stage (E) in estrous cycle” value was found to be 20.83%, the “Average rate of metestrum (M) in estrous cycle” value came out at 18.10% and the “Average rate of proestrous (P) in estrous cycle” value was found to be 40.28%. In addition, in the test on POI model mice [9] (Example 1, 12 days observation, 6 SF, 7 HDCA, 7 SF and HDCA mice left), the “Number of mice with estrous cycle recovered” value was determined as 4 mice. Further, the “Serum FSH level compared with the normal saline group” value in the test on POI mice [1] (Example 1, FIG. 6) is “certain increasing trend”. The compound also showed an FSH in the test on POI mice [1] (Example 1 POI mice) of 8.56 ± 2.59 mIU/mL. In test [4] (Example 1 POI mice), the “Body weight before modeling” value was 18.77 ± 0.63 g, the “Body weight after modeling” value was 18.15 ± 0.92 g and the “Body weight after treatment” value was 18.07 ± 1.03 g. Besides, in [4] (Example 1 POI mice, FIG. 2A), the “Weight recovery after chemotherapy” value was “significantly beneficial”. For the same compound, in test [4] (Example 2 POI mice, FIG. 2B), the “Weight recovery after chemotherapy” value was “significantly beneficial”. Moreover, the “Activity of LDH compared with the normal saline group” value with POI mice [10] (FIG. 12) is on record as “reduced to some extent”. The LDH with POI mice [10] (setting [12]) is 3136.09 ± 294.67 U/mL. For the same compound, the “Serum E2 level compared with the normal saline group” value with POI mice [6] (Example 1, FIG. 7) is listed as “tendency to increase”. Moreover, the E2 with POI mice [6] (Example 1 POI mice) turned out to be 57.24 ± 4.56 pg/mL.
